Converted amounts (≈) assume the structure as drawn.
What was measured:
P. aeruginosa = experiment: microbe, parasite or virus in culture; settings: Pseudomonas aeruginosa, ATCC27853, read-out: MIC against P. aeruginosa (ATCC 27853), as stated for the pneumonia model
How it was run: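 Broth microdilution in MHB, 2-fold 12-point series from 128 or 64 down to 0.06 or 0.03 μg mL^−1, 5 × 10^5 CFU mL^−1. Extra runs in CAMHB per CLSI and in MHB with 1% agarose; n ≥ 6.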

P. aeruginosa ATCC 27853 = experiment: Murine pneumonia model, aerosolized treatment; format: in vivo, P. aeruginosa in CD1 mice; settings: lung burden; Tobramycin 4.2mg/mL 20 min; group 9
Procedure: Peritonitis and UTI murine models were performed at the Department of Microbiology & Infection Control, Statens Serum Institute, Copenhagen, Denmark, under approval by the National Committee of Animal Ethics, Denmark, and adhered to the standards of EU Directive 2010/63/EU. The mouse pneumonia model was performed by Evotec Ltd, United Kingdom, under UK Home Office Licenses and with local ethical committee clearance. All animal studies were contracted by Adenium Biotech ApS.
Peptides were prepared in Ringer’s acetate pH 6.0 (vehicle) at 34 mg mL^−1. Comparator antibiotics included meropenem (Meronem®, AstraZeneca), polymyxin B sulfate (Sigma) and tobramycin (Novartis).
P. aeruginosa pneumonia in vivo model was prepared as follows: male CD1 mice were immunosuppressed with cyclophosphamide 200 mg kg^−1 on day −4 and 150 mg kg^−1 on day −1. […] Mouse weights were recorded once-daily following infection to ensure animals remained within ethical limits and to monitor efficacy of treatment. All mice remaining in the study at 34 h post infection were euthanized and the burden of P. aeruginosa in the lungs was determined. […] The lung homogenates were diluted appropriately then quantitatively cultured on to Pseudomonas-selective agar and incubated at 37 °C for 24 h before the number of colonies was counted. […]

With `NC[C@H]1O[C@H](O[C@H]2[C@H](O)[C@@H](O[C@H]3O[C@H](CO)[C@@H](O)[C@H](N)[C@H]3O)[C@H](N)C[C@@H]2N)[C@H](N)C[C@@H]1O` [tobramycin] the MIC (P. aeruginosa) was 0.5 to 2 µg/mL (≈ 1.07 to 4.28 µM) and the “Log Group Geometric mean (CFU/g)” value (P. aeruginosa ATCC 27853) was 2.68 CFU/g.

From PMC7311426, “An amphipathic peptide with antibiotic activity against multidrug-resistant Gram-negative bacteria” (Nature Communications, 2020)
